Legend:
[1] = system: MDA B231 bone homing clone cells; test: Bone cancer metastasis model, histological sections after 42 days; format: in vivo, mice; conditions: po, qd
Description: (§1) Male C3H/HeNCrl mice for the NCTC2472 mouse fibrosarcoma cells (20-25 g, Charles River, Sulzfeld, Germany) or female NMRI Nude mice for the MDA MB 231 human breast cancer cells (Janvier, France) were used. Induction of bone cancer was carried out as previously described (Schwei et al., 1999^1). Induction of general anaesthesia was performed under 4% isoflurane in a mixture of 30% O2 and 70% air (1000 ml/ min). Anaesthesia was then maintained at 2.5% isoflurane for the duration of the surgical procedure. The left hind paw was shaved and disinfected with povidone-iodine followed by 70% ethanol. A superficial 1 cm incision was made over the knee overlaying the patella. The patella ligament was cut, exposing the condyles of the distal femur. A 23-gauge needle was inserted at the level of the intercondylar notch and the intramedullary canal of the femur to create a cavity for injection of the cells. Tumour cells (2.5×10^6 cells/20 μl) were then injected into the bone cavity using a 0.3 ml syringe. To prevent leakage of cells outside the bone, the injection site was sealed with dental acrylic (Paladur, Heraeus Kulzer, GmbH, Wehrheim, Germany) and the wound closed with skin stitches. For the sham-operated group, an identical procedure was followed except that medium without cells was injected.
In the bone cancer metastasis model MDA B231 bone homing clone cells were inoculated into the tibia as described. After 42 days, animals were sacrificed and the amputated paws placed in fixative. The legs were de-calcified and sections cut to determine levels of bone destruction.

[2] = system: NCTC2472 fibrosarcoma or MDA-MB231 breast cancer cells injected into bone; test: Spontaneous paw lifting behaviour (pain) in bone cancer model; format: in vivo, mice; conditions: day 14 post tumor cell inoculation; dosed at MTD by oral gavage once daily; 4 minutes observation; vehicle 80%
Description: as §1, with “injected. […]” for “injected.”

[3] = system: NCTC2472 fibrosarcoma or MDA-MB231 breast cancer cells injected into bone; test: Evaluation of bone destruction by μCT of ipsilateral left hind limbs; format: in vivo, mice; conditions: tumor inoculated animals, dosed at MTD; compared with vehicle and sham
Description: as §1

[4] = oral gavage, once daily
[5] = Tissue distribution profile; format: in vivo

SMILES	detectable tumor in histological sections (FIG. 3) ([1]; 100 mg per kg)	signs of tumor cells and bone destruction ([1]; 100 mg per kg)	amount of tumor growth and amount of bone destruction ([1]; dose dependence)	percentage of the time the left hind paw was raised (spontaneous paw lifting) [2]	osteolytic bone destruction (μCt reconstructions, FIG. 2) [3]	maximum tolerated dose (MTD) [4]	tissue distribution to bone marrow ([5]; in vivo)	blood brain barrier penetration ([5]; intact blood brain barrier)
COc1cc2ncnc3c2cc1OCCCCCN(C)Cc1ccc(Br)cc1N3 [Compound 1, 4,6-ethanediylidenepyrimido[4,5-b][6,1,12]benzoxadiazacyclo-pentadecine, 17-bromo-8,9,10,11,12,13,14,19-octahydro-20-methoxy-13-methyl]	detectable tumor is hardly present	no signs of tumor cell not any signs bone destruction	dose dependently reduced	~8%	significantly less bone destruction	200 mg per kg	preferential tissue distribution to the bone marrow compartment	ability to cross the intact blood brain barrier
COc1cc2ncnc(Nc3ccc(F)c(Cl)c3)c2cc1OCCCN1CCOCC1 [Iressa, reference compound]				more than 35%	Considerable bone loss	50 mg per kg		

Reference: patent US20080213275A1, “USE OF MTKI 1 FOR TREATING OR PREVENTING BONE CANCER” (priority 2006, published 2008)
